The numbers were not newly measured in US6709866B2, “Methods for enhancing survival of a neuron” (Aegera Therapeutics, Inc., priority 1996, dated 2004), which cites them from elsewhere.

One data set deals with motoneurons. To be noted: literature.
For the next data set, the system named is hippocampal cultures. To be noted: 100 pM.
Data set [1] has as its system primary hippocampal, cortical and septal cultures. To be noted: Cheng et al. 1994.

As to `CCSCc1ccc2c(c1)c1c3c(c4c5cc(CSCC)ccc5n5c4c1n2[C@H]1C[C@](O)(C(=O)OC)[C@]5(C)O1)CNC3=O` [CEP1347], the “motoneuron death and loss of ChAT in vivo” value in the data set on motoneurons is “prevents developmentally programmed motoneuron death and loss of ChAT in adult motoneurons”.

Take `C[C@]12O[C@H](C[C@]1(O)C(=O)O)n1c3ccccc3c3c4c(c5c6ccccc6n2c5c31)CNC4=O` [K252b]: the “tyrosine phosphorylation of multiple proteins (40 to 200 kDa)” value in the data set with hippocampal cultures was “enhance tyrosine phosphorylation”.

With `O=c1c(-c2ccc(O)cc2)coc2cc(O)cc(O)c12` [genistein], the “effect on the neuroprotective effects of K252-like compounds” value in data set [1] is reported as “blocked”.
